The values below are quoted from earlier work in patent US7314719B2, “Method for increasing productivity of secondary metabolite by conferring drug-resistant mutations” (priority 2001, dated 2008).

For this series the following is noted: cited from earlier work.

Where two headings read alike, the source gives them in different places.

In the case of `C[C@H]1O[C@H](CC(=O)O)Cc2c1c(O)c1c(O)c(-c3cc(=O)c4c(=O)c5c(c(=O)c=4c3=O)[C@@H](C)O[C@H](CC(=O)O)C5)cc(O)c1c2O` [actinorhodin], the Solubility result (in alcohol, acetic acid, acetone) is “slightly soluble”; the Solubility result (in aq acid) was “Practically insol”; the Solubility result (in aq alkali (bright blue color)) is listed as “sol”; the Solubility entry (in piperidine, tetrahydrofuran, dioxane, phenol) is given as “Soluble”.
